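Results reflect a 48-hour exposure of cells in 96-well plates to compound at five concentrations. At the GI50, growth is halved. TGI is the concentration that stops growth completely.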
What was measured:
Experiment in all cases: NCI anticancer screen, dose series, 48 h
A549 NSCLC = test system: A549 NSCLC
IGROV1 ovarian = test system: IGROV1 ovarian
LXFL 529 NSCLC = test system: LXFL 529 NSCLC
M19-MEL melanoma = test system: M19-MEL melanoma
OVCAR-3 ovarian = test system: OVCAR-3 ovarian
RXF 393 renal = test system: RXF 393 renal
SF-268 CNS = test system: SF-268 CNS
SF-539 CNS = test system: SF-539 CNS
SN12C renal = test system: SN12C renal
SNB-19 CNS = test system: SNB-19 CNS

SMILES	TGI (A549 NSCLC) [µM]	TGI (IGROV1 ovarian) [µM]	TGI (LXFL 529 NSCLC) [µM]	TGI (M19-MEL melanoma) [µM]	TGI (OVCAR-3 ovarian) [µM]	TGI (RXF 393 renal) [µM]	TGI (SF-268 CNS) [µM]	TGI (SF-539 CNS) [µM]	TGI (SN12C renal) [µM]	TGI (SNB-19 CNS) [µM]	GI50 (A549 NSCLC) [µM]	GI50 (IGROV1 ovarian) [µM]	GI50 (LXFL 529 NSCLC) [µM]	GI50 (M19-MEL melanoma) [µM]	GI50 (OVCAR-3 ovarian) [µM]	GI50 (RXF 393 renal) [µM]	GI50 (SF-268 CNS) [µM]	GI50 (SF-539 CNS) [µM]	GI50 (SN12C renal) [µM]	GI50 (SNB-19 CNS) [µM]
CN=c1ss/c(=N\C(=S)N(C)C)n1C1CCCCC1	> 31.6	> 31.6	> 31.6	> 31.6	> 31.6	> 31.6	> 31.6	> 100	> 31.6	> 31.6										
CC[C@@]1(OC(=O)C(N)CCC(=O)O)C(=O)OCc2c1cc1n(c2=O)Cc2cc3ccccc3nc2-1 (stereo not given in full)	3.37	4.35	5.75	1.49	2.07	0.757	14.7	0.0754	1.34	> 30.7										
O=C1C=CC(=O)c2c1cc1ccccc1c2O	35.3	15.6	3.99	11.3	4.8	4.98	29.2	25	25.2	35.9										
CCOC(=O)C/C(N)=C(\C#N)C(=O)OCC	> 100	> 100	> 100	> 100	> 100	> 100	> 100	> 100	> 100	> 100										
O=S1c2ccccc2N=C(c2ccc3ccccc3c2)CC1c1ccccc1F (stereo not given)	> 100	> 100	> 100	> 100	> 100	> 100	> 100	> 100	> 100	> 100										
OC1=CN=C(C2CC2)Oc2ccccc21	> 100	> 100	> 100	> 100	> 100	> 100	> 100	> 100	> 100	> 100										
CC(N)CN.CC(N)CN.[Cl-].[O]=[Os+2]=[O] (stereo not given)	> 100	> 100	> 100	26.3	> 100	> 100	> 100	> 100	> 100	> 100	> 100	> 100	53.1	7.59	81.4	> 100	77.3	> 100	> 100	> 100
COC(=O)[C@H]1CC(=O)C=C2CCCC21 (stereo not given in full)	> 100	> 100	> 100	> 100	> 100	> 100	> 100	> 100	> 100	> 100										
Cc1ccc(C)c(NC(=O)C(=O)CC(=O)c2cccc3ccccc23)c1	> 100	> 100	> 100	> 100	> 100	> 100	> 100	> 100	> 100	> 100										
[CH3][Sn]([CH3])([CH3])[O]C(=O)C(O)c1ccccc1 (stereo not given)	49.1	> 87.3	> 28.4	9.6	66.2	7.43	> 82.7	29.2	99	> 89.2	4.72	8.47	2.98	3.31	5.38	3	6.2	5.9	8.7	17
CC(C)(C)c1cc(Oc2ccc(C#N)c(C#N)c2)cc(C(C)(C)C)c1	> 100	> 100	> 100	> 100	> 100	> 100	> 100	> 100	> 100	> 100										
